Measured values: ChEMBL document CHEMBL3046559, “Sterile oat (Avena sterilis L.) cross-resistance profile to ACCase-inhibiting herbicides in Greece” (2012)

Columns and labels:
Assay type in all cases: functional
Avena sterilis [1] = test: Resistance index, ratio of GR50 for Avena sterilis accession P05 to GR50 for Avena sterilis accession P10S
Avena sterilis [2] = test: Herbicidal activity against Avena sterilis accession P09 assessed as weed survival at 32 times field recommended herbicide dose
Avena sterilis [3] = test: Resistance index, ratio of GR50 for Avena sterilis accession P03 to GR50 for Avena sterilis accession P10S
Avena sterilis [4] = test: Herbicidal activity against Avena sterilis accession P11 assessed as weed survival at 1 times field recommended herbicide dose
Avena sterilis [5] = test: Resistance index, ratio of GR50 for Avena sterilis accession P18 to GR50 for Avena sterilis accession P10S
Avena sterilis [6] = test: Resistance index, ratio of GR50 for Avena sterilis accession P11 to GR50 for Avena sterilis accession P10S
Avena sterilis [7] = test: Herbicidal activity against Avena sterilis accession P17 assessed as weed survival at 16 times field recommended herbicide dose
Avena sterilis [8] = test: Resistance index, ratio of GR50 for Avena sterilis accession P15 to GR50 for Avena sterilis accession P10S
Avena sterilis [9] = test: Resistance index, ratio of GR50 for Avena sterilis accession P09 to GR50 for Avena sterilis accession P10S
Avena sterilis [10] = test: Resistance index, ratio of GR50 for Avena sterilis accession P17 to GR50 for Avena sterilis accession P10S
Avena sterilis [11] = test: Resistance index, ratio of GR50 for Avena sterilis accession P08 to GR50 for Avena sterilis accession P10S
Avena sterilis [12] = test: Resistance index, ratio of GR50 for Avena sterilis accession P04 to GR50 for Avena sterilis accession P10S
Avena sterilis [13] = test: Resistance index, ratio of GR50 for Avena sterilis accession P19S to GR50 for Avena sterilis accession P10S
Avena sterilis [14] = test: Resistance index, ratio of GR50 for Avena sterilis accession P06S to GR50 for Avena sterilis accession P10S
Avena sterilis [15] = test: Resistance index, ratio of GR50 for Avena sterilis accession P02 to GR50 for Avena sterilis accession P10S
Avena sterilis [16] = test: Herbicidal activity against Avena sterilis accession P18 assessed as weed survival at 16 times field recommended herbicide dose
Avena sterilis [17] = test: Resistance index, ratio of GR50 for Avena sterilis accession P13S to GR50 for Avena sterilis accession P10S
Avena sterilis [18] = test: Resistance index, ratio of GR50 for Avena sterilis accession P22 to GR50 for Avena sterilis accession P10S
Avena sterilis [19] = test: Herbicidal activity against Avena sterilis accession P22 assessed as weed survival at 32 times field recommended herbicide dose
Avena sterilis [20] = test: Resistance index, ratio of GR50 for Avena sterilis accession P12 to GR50 for Avena sterilis accession P10S
Avena sterilis [21] = test: Resistance index, ratio of GR50 for Avena sterilis accession P21S to GR50 for Avena sterilis accession P10S
Avena sterilis [22] = test: Resistance index, ratio of GR50 for Avena sterilis accession P14 to GR50 for Avena sterilis accession P10S
Avena sterilis [23] = test: Resistance index, ratio of GR50 for Avena sterilis accession P16 to GR50 for Avena sterilis accession P10S
Avena sterilis [24] = test: Resistance index, ratio of GR50 for Avena sterilis accession P20 to GR50 for Avena sterilis accession P10S
Avena sterilis [25] = test: Resistance index, ratio of GR50 for Avena sterilis accession P01 to GR50 for Avena sterilis accession P10S
Avena sterilis [26] = test: Resistance index, ratio of GR50 for Avena sterilis accession P07 to GR50 for Avena sterilis accession P10S

Row | SMILES | Survival (Avena sterilis [2]) | Ratio (Avena sterilis [3]) | Survival (Avena sterilis [4]) | Survival (Avena sterilis [7]) | Ratio (Avena sterilis [8]) | Ratio (Avena sterilis [9]) | Ratio (Avena sterilis [10]) | Ratio (Avena sterilis [11]) | Ratio (Avena sterilis [12]) | Ratio (Avena sterilis [13]) | Ratio (Avena sterilis [14]) | Ratio (Avena sterilis [15]) | Survival (Avena sterilis [16]) | Ratio (Avena sterilis [17]) | Ratio (Avena sterilis [18]) | Survival (Avena sterilis [19]) | Ratio (Avena sterilis [21]) | Ratio (Avena sterilis [23]) | Ratio (Avena sterilis [24]) | Ratio (Avena sterilis [25]) | also measured
1 | C#CCOC(=O)[C@@H](C)Oc1ccc(Oc2ncc(Cl)cc2F)cc1 [CLODINAFOP PROPARGYL] | 0% | >164 | 100% | 27% | >164 | 6 | 35 | >164 | >164 | 3.6 | 1.1 | >164 | 40% | 0.6 | 15 | 0% | 1.4 | 21 | 63 | 130 | Ratio (Avena sterilis [1]): 22; Ratio (Avena sterilis [5]): 64; Ratio (Avena sterilis [6]): >164; Ratio (Avena sterilis [20]): >164; Ratio (Avena sterilis [22]): 150
2 | COC(=O)C(C)Oc1ccc(Oc2ccc(Cl)cc2Cl)cc1 (stereo not drawn) [DICLOFOP-METHYL] | 40% | 26 | 100% | 43% | >50 | 28 | 17 | 22 | 28 | 0.9 | 1.1 | >50 | 40% | 1 | 8 | 20% | 0.8 | 11 | >50 | 43 | Ratio (Avena sterilis [1]): 10; Ratio (Avena sterilis [5]): 20; Ratio (Avena sterilis [6]): >50; Ratio (Avena sterilis [26]): 7; Ratio (Avena sterilis [20]): >50; Ratio (Avena sterilis [22]): 22
3 | CCOC(=O)[C@@H](C)Oc1ccc(Oc2nc3ccc(Cl)cc3o2)cc1 [FENOXAPROP-P-ETHYL] | 40% | 55 | 97% | 20% | 92 | 136 | 19 | 55 | 59 | 1.9 | 1.1 | 133 | 73% | 1.1 | 16 | 0% | 1.2 | 32 | >165 | 38 | Ratio (Avena sterilis [1]): 12; Ratio (Avena sterilis [5]): >165; Ratio (Avena sterilis [6]): 145; Ratio (Avena sterilis [26]): >165; Ratio (Avena sterilis [20]): 83; Ratio (Avena sterilis [22]): 10
4 | COCc1cnc(C2=NC(C)(C(C)C)C(=O)N2)c(C(=O)O)c1 (stereo not drawn) [IMAZAMOX] | 0% |  | 0% | 0% |  |  |  |  |  |  |  |  | 0% |  |  | 0% |  |  |  |  | 
5 | CCc1cc(C)cc(CC)c1-c1c(OC(=O)C(C)(C)C)n2n(c1=O)CCOCC2 [PINOXADEN] | 0% |  | 0% | 0% |  |  |  |  | 18 | 1.6 | 0.9 |  | 0% | 1 |  | 0% | 1.4 |  | 10 |  | 
6 | CCO/N=C(\CC)C1=C(O)CC(c2c(C)cc(C)cc2C)CC1=O (stereo not drawn) [TRALKOXYDIM] | 0% | 55 | 17% | 0% | 26 | 19 | 14 | 27 | 266 | 0.4 | 1 | 38 | 0% | 1 | 15 | 0% | 3 | 32 | 102 | 27 | 
